Reference: patent US20060020014A1, “Method for treating nervous system disorders and conditions” (Wyeth, priority 2004, published 2006)
“And” between values parts separate entries of the source, which are not always exact repeats. Equal values may be shown once.

How the values were obtained:
[1] = test system: OVX rats, tail skin temperature (TST); test: Telemetry rat model of ovariectomy-induced thermoregulatory dysfunction (tail skin temperature); format: in vivo; conditions: 30 mg/kg sc; for Duration: duration of effect on TST; for Onset: onset of action on TST
Excerpt: This model has been modified from a previously reported protocol describing estrogen regulation of diurnal tail skin temperature (TST) patterns (Berendsen, et al., European Journal of Pharmacology, 2001, 419(1): 47-54). […] A temperature and physical activity transmitter (PhysioTel TA10TA-F40, Data Sciences International) was implanted subcutaneously in the dorsal scapular region and the tip of the temperature probe was tunneled subcutaneously 2.5 cm beyond the base of the tail. After a 7-day recovery period, TST readings were continuously recorded for the remainder of the study. Tail skin temperature readings were collected from each animal every 5 minutes with values obtained over a 10 second sampling period. The day before test day, an average baseline TST value was calculated for each animal by averaging temperature readings recorded during the 12 hour active (dark) phase. In these studies, animals were dosed approximately 40 minutes prior to the onset of dark cycle.
Statistical analysis: Evaluation of a compound's ability to restore normal lowering of TST in the telemetry model was analyzed using hourly TST values calculated for each animal by averaging the 12 temperature readings obtained every 5 minutes over that recording time. To analyze ΔTST in the telemetry model, a two factors repeated measure ANOVA was performed. The model used for analysis was ΔTST=GRP (group)+HR (hours)+GRP*HR+BASELINE. Thus, the reported least squares means are the expected mean values as if both groups had the same baseline value. Post-hoc tests of hourly GRP*HR samples are t-tests of the difference between groups for each hour. To be conservative, a result was not considered significant unless the p-value was <0.025. All analyses were performed using SAS PROC MIXED (SAS, Carey, N.C.).
Rats were injected subcutaneously with vehicle (2%Tween/0.5% methylcellulose) or 30 mg/kg, sc test compound dissolved in 2%Tween/0.5% methylcellulose. The effect of test compound is measured by evaluating the following parameters in this model: onset of action, duration of effect on TST, maximal change in TST and mean change in TST over the duration of the compound effect.

[2] = test system: OVX rats, tail skin temperature (TST); test: as above; format: in vivo; conditions: 30 mg/kg, sc; p<0.05 compared to vehicle control
[3] = test system: SNL rats, tactile allodynia; test: Spinal nerve ligation (SNL) model of neuropathic pain, tactile hypersensitivity (von Frey); format: in vivo, rat; conditions: 30 mg/kg IP, 30-300 minutes after administration
Excerpt: Subjects. Male Sprague-Dawley rats (Indianapolis, Ind.) weighing 150 to 200 g at time of arrival, were individually housed in wire cages in a climate-controlled room. A 12-hour light/dark cycle (lights on at 0630) was in effect, and food and water were available ad libitum.
Surgery—Spinal Nerve Ligation. Rats were anesthetized with 3.5% halothane in O2 at 1 L/min and maintained with 1.5% halothane in O2 during surgery. Ligation of the L5 and L6 nerves was produced by an incision through the left paraspinal muscles. The left L5 and L6 spinal nerves were isolated adjacent to the vertebral column and ligated tightly with 6-0 silk suture just distal to the dorsal root ganglion. The wound was closed in layers using 4-0 silk suture and wound clips. Testing began 7 days after surgery.
Assessment of tactile hypersensitivity. […] Baseline tactile sensitivity was assessed using a series of calibrated von Frey monofilaments (Stoelting; Wood Dale, Ill.) 0 to 3 days before surgery. […] The ability of a single dose of test compound to reverse established hypersensitivity was assessed using a time course procedure. […]
Results are presented as the 50% threshold values (50% threshold in g force) estimated by the Dixon non-parametric test. […] Significant main effects were analyzed further by subsequent least significant difference analysis. […]

[4] = target: human norepinephrine transporter (hNET) (Homo sapiens, UniProt P23975); test: cell-based; conditions: hNET function uptake (EC50 in nm), MDCK-Net6 cells, [3H]NE uptake
Experimental: Test compounds were prepared in DMSO (10 mM) and diluted in assay buffer according to test range (1 to 10,000 nM). Twenty-five microliters of assay buffer (maximum NE uptake) or test compound were added directly to triplicate wells containing cells in 200 μl of assay buffer. […] To initiate the NE uptake, [^3H]NE diluted in assay buffer (120 nM final assay concentration) was delivered in 25 μl aliquots to each well and the plates were incubated for 5 minutes (37° C.).

[5] = target: T1, human serotonin transporter (hSERT) (Homo sapiens, UniProt P31645); test: Serotonin (5-HT) uptake assay in JAR cells (hSERT function uptake); format: cell-based; conditions: [3H]5-HT uptake
T1 construct: The methods for 5-HT functional reuptake using the JAR cell line were modified using a previous literature report; host or cells: JAR (human placental choriocarcinoma), staurosporine-stimulated
Experimental: The methods for 5-HT functional reuptake using the JAR cell line were modified using a previous literature report. […] On day 2, cells were stimulated with staurosporine (40 nM) to increase the expression of the 5-HT transporter. On day 3, cells were removed from the cell incubator two hours prior to assay and maintained at room temperature to equilibrate the growth medium to ambient oxygen concentration. […] Twenty-five microliters of assay buffer (maximum 5-HT uptake) or test compound were added directly to triplicate wells containing cells in 200 μl of assay buffer. The cells were incubated with the compound for 10 minutes (37° C.). […] The cells were incubated with the reaction mixture for 5 minutes at 37° C. The 5-HT uptake reaction was terminated by decanting the assay buffer.

[6] = target: hNET (Homo sapiens, UniProt P23975); test: hNET binding
[7] = target: hSERT (Homo sapiens, UniProt P31645); test: hSERT binding
Sequence of hSERT (P31645 whole entry): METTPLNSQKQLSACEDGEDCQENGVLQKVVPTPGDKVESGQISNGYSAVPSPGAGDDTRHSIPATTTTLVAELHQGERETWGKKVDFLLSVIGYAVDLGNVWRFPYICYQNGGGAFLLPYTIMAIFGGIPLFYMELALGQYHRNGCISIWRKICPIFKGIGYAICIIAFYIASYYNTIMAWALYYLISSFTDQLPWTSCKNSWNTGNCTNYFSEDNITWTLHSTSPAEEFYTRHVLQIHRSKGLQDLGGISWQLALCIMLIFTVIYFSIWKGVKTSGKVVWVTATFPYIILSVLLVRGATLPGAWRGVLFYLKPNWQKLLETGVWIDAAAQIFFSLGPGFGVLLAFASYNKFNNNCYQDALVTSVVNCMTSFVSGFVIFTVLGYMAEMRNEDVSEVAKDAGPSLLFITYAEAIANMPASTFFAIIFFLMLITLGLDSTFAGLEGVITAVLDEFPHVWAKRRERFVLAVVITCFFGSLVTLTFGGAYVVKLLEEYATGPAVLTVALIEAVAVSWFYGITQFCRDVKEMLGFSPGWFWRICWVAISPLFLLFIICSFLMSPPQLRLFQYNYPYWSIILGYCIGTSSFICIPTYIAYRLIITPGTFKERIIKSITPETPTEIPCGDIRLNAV

Sequence of human norepinephrine transporter (hNET) (P23975 whole entry): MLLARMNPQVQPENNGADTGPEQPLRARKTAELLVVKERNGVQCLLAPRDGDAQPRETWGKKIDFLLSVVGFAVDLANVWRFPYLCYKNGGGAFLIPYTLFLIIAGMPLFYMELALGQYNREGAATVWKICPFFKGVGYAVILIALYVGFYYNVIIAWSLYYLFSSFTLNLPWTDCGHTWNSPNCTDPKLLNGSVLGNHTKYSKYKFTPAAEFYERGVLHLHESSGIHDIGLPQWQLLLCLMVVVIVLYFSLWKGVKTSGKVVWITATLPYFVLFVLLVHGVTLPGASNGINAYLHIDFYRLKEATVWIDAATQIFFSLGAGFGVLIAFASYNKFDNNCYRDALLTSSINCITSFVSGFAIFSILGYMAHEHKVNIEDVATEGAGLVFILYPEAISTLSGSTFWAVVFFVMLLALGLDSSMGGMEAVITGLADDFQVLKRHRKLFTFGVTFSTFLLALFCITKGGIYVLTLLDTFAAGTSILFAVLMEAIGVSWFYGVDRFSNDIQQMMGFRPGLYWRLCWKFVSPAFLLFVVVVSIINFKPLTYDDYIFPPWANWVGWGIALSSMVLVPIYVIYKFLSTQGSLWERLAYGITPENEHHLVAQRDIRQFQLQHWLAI
Sequence of hNET (P23975 whole entry): as above
T1 sequence (P31645 whole entry): as the sequence (P31645 whole entry) above

## Cc1ccc(C23CNCC2C3)cc1 (single isomer, unassigned; (+)) [(+)-1-(4-methylphenyl)-3-azabicyclo[3.1.0]hexane]
[1]
  Activity Index: -2.99 h
  Duration: 3.5 h
  Onset: 0.5 h
[2]
  Restoration of normal TST in OVX-induced thermoregulatory dysfunction telemetry model: restores normal TST

## Clc1ccc(C23CNCC2C3)cc1Cl (racemic) [Racemic 1-(3,4-dichlorophenyl)-3-azabicyclo[3.1.0]hexane, 1-(3,4-dichlorophenyl)-3-azabicyclo[3.1.0]hexane]
[3]
  Reversal of tactile allodynia in the SNL neuropathic pain model: significantly reverses tactile allodynia

## Cc1ccc(C23CNCC2C3)cc1 (racemic) [Racemic 1-(4-methylphenyl)-3-azabicyclo[3.1.0]hexane, 1-(4-methylphenyl)-3-azabicyclo[3.1.0]hexane]
[4]
  EC50: 265 nM and 426 nM
[5]
  EC50: 736 nM
[6]
  hNET binding (% I @ 1 μM): 71.8 % I
[7]
  hSERT binding (% I @ 1 μM): 42.8 % I
[1]
  Activity Index: -10.6 h
  Duration: 3.5 h
  Onset: 0.5 h
[2]
  Restoration of normal TST in OVX-induced thermoregulatory dysfunction telemetry model: restores normal TST
